Some test systems named below: RXF 393 renal; A498 renal; OVCAR-4 ovarian; IGROV1 ovarian; 786-0 renal; HCT-15 colon; TK-10 renal; SK-MEL-28 melanoma; OVCAR-8 ovarian.
Holding throughout (test): NCI tumour cell line growth inhibition, 48 h

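Results reflect a 48-hour exposure of cells in 96-well plates to compound at five concentrations. Abbreviation: GI50, concentration required for 50% inhibition of growth. TGI denotes the concentration required for complete inhibition of growth.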

`BrC1=CC=C2NC=CC3=CC=NC1C32` (centres undefined): the TGI in the assay on RXF 393 renal is 51.7 µM; in the assay with A498 renal, 85.4 µM; in the assay on OVCAR-4 ovarian, 97.3 µM; in the assay with IGROV1 ovarian it was over 100 µM; with 786-0 renal, over 100 µM; in the assay on HCT-15 colon, over 100 µM. In addition, the values for the TGI in the assay with TK-10 renal, in the assay on SK-MEL-28 melanoma and in the assay with OVCAR-8 ovarian were 99.8 µM, over 100 µM and over 94 µM, respectively.
For the compound `CC(=O)[CH-]C(=O)c1ccccc1.CC(=O)[CH-]C(=O)c1ccccc1.CC1(C)C2CCC1(C)C([O-])C2.CC1(C)C2CCC1(C)C([O-])C2.[Ti+4]`, the GI50 was 17.6 µM with RXF 393 renal; 97.3 µM with OVCAR-4 ovarian; 25.3 µM with IGROV1 ovarian; 25.9 µM in the assay with 786-0 renal; 30.9 µM in the assay on HCT-15 colon; 53.5 µM in the assay on TK-10 renal. The results for the GI50 in the assay with SK-MEL-28 melanoma and in the assay on OVCAR-8 ovarian were 34.1 µM and 44.9 µM, respectively. Further, the TGI in the assay on RXF 393 renal is 36.1 µM; in the assay on OVCAR-4 ovarian, over 100 µM; in the assay with IGROV1 ovarian it was 85.8 µM; in the assay with 786-0 renal, over 100 µM; in the assay with HCT-15 colon, over 100 µM; in the assay with TK-10 renal, over 100 µM. For the same compound, the TGI with SK-MEL-28 melanoma and in the assay on OVCAR-8 ovarian was over 100 µM throughout.
`Clc1cc(Cc2cc(Cl)c(Cl)c3c2OCOC3)c2c(c1Cl)COCO2`: the TGI in the assay with RXF 393 renal is 70.3 µM; in the assay with A498 renal, 80.4 µM; in the assay with OVCAR-4 ovarian, 43.9 µM; with IGROV1 ovarian, over 100 µM; in the assay on 786-0 renal, 62.4 µM; in the assay with HCT-15 colon, over 100 µM. Further, the TGI in the assay with TK-10 renal, in the assay on SK-MEL-28 melanoma and with OVCAR-8 ovarian was over 100 µM each time.
On to `N#CC(C(=O)/C(=N/N)C(C#N)c1ccccc1)c1ccccc1` (centres undefined), for which the TGI in the assay with RXF 393 renal, in the assay on OVCAR-4 ovarian, with IGROV1 ovarian, in the assay with 786-0 renal, in the assay on HCT-15 colon and with TK-10 renal was over 100 µM each time. In addition, the TGI in the assay with SK-MEL-28 melanoma and in the assay with OVCAR-8 ovarian was over 100 µM in each case.
Consider `Oc1cc(O)c2c(-c3c(O)c(-c4ccc(O)c(O)c4)[o+]c4cc(O)cc(O)c34)c(O)c(-c3ccc(O)c(O)c3)[o+]c2c1`, for which the TGI was 81.1 µM in the assay on RXF 393 renal; over 100 µM with A498 renal; over 100 µM in the assay with OVCAR-4 ovarian; over 100 µM in the assay with IGROV1 ovarian; over 100 µM in the assay on 786-0 renal; over 100 µM in the assay with HCT-15 colon. For the same compound, the TGI in the assay with TK-10 renal, in the assay with SK-MEL-28 melanoma and in the assay on OVCAR-8 ovarian was over 100 µM throughout.
Turning to `CCC/C(=N/NC(=O)C(N)=O)C(CC)C(=O)CCC(=O)N(Cc1ccccc1)Cc1ccccc1` (centres undefined), the TGI in the assay on RXF 393 renal, in the assay with A498 renal, in the assay with IGROV1 ovarian, in the assay on 786-0 renal, in the assay on HCT-15 colon and in the assay with TK-10 renal was over 100 µM each time. For the same compound, the TGI in the assay on SK-MEL-28 melanoma and with OVCAR-8 ovarian was over 100 µM each time.
As to `CC(=O)[CH-]C(=O)c1ccccc1.CC(=O)[CH-]C(=O)c1ccccc1.[Eu+3].[OH-].[OH3+]`, the GI50 in the assay with RXF 393 renal, in the assay with A498 renal, with OVCAR-4 ovarian, in the assay on IGROV1 ovarian, with 786-0 renal and in the assay on HCT-15 colon was over 100 µM throughout. For the same compound, the GI50 with TK-10 renal, in the assay on SK-MEL-28 melanoma and in the assay on OVCAR-8 ovarian was over 100 µM each time. Besides, the TGI in the assay on RXF 393 renal, with A498 renal, in the assay on OVCAR-4 ovarian, in the assay with IGROV1 ovarian, in the assay on 786-0 renal and in the assay on HCT-15 colon was over 100 µM each time. The TGI in the assay with TK-10 renal, in the assay with SK-MEL-28 melanoma and in the assay with OVCAR-8 ovarian was over 100 µM each time.
As for `CC(=O)[CH-]C(=O)c1ccccc1.CC(=O)[CH-]C(=O)c1ccccc1.CC(C)CCCC(C)[C@H]1CCC2[C@@H]3CC=C4C[C@@H]([O-])CC[C@]4(C)C3CC[C@@]21C.CC[O-].[Ti+4]` (some centres undefined), the GI50 is 53.1 µM with A498 renal; 91.6 µM in the assay on OVCAR-4 ovarian; over 100 µM with IGROV1 ovarian; 35.2 µM in the assay with 786-0 renal; 53.8 µM in the assay with HCT-15 colon; 45.6 µM with TK-10 renal. The GI50 is 30.3 µM with SK-MEL-28 melanoma and 46.3 µM in the assay with OVCAR-8 ovarian. Also, the TGI with A498 renal, in the assay on OVCAR-4 ovarian, in the assay on IGROV1 ovarian, in the assay on 786-0 renal, in the assay with HCT-15 colon and in the assay on TK-10 renal was over 100 µM each time. The TGI in the assay on SK-MEL-28 melanoma and in the assay on OVCAR-8 ovarian was over 100 µM throughout.
In the case of `O=[N+]([O-])c1nccn1CC(O)CN1CC1` (centres undefined), the TGI was 98.2 µM in the assay on RXF 393 renal; over 100 µM in the assay on A498 renal; over 100 µM in the assay with OVCAR-4 ovarian; over 100 µM with IGROV1 ovarian; over 100 µM in the assay on 786-0 renal; over 100 µM in the assay on HCT-15 colon. The TGI in the assay on TK-10 renal, in the assay on SK-MEL-28 melanoma and in the assay on OVCAR-8 ovarian was over 100 µM throughout.
In the case of `O=C(CO)CC(=O)C(=O)Nc1ccccc1`, the TGI with RXF 393 renal, in the assay on OVCAR-4 ovarian, in the assay on IGROV1 ovarian, with 786-0 renal, with HCT-15 colon and in the assay with TK-10 renal was over 100 µM in each case. For the same compound, the TGI with SK-MEL-28 melanoma and in the assay on OVCAR-8 ovarian was over 100 µM throughout.
For the compound `CN(C)c1ccc([O][Bi]([Cl])[Cl])cc1`, the GI50 in the assay on RXF 393 renal was 82.2 µM; with OVCAR-4 ovarian it was over 100 µM; in the assay with IGROV1 ovarian, over 100 µM; with 786-0 renal it was over 100 µM; with HCT-15 colon, over 100 µM; in the assay on TK-10 renal, over 100 µM. The GI50 is over 100 µM in the assay on SK-MEL-28 melanoma and 53.2 µM in the assay with OVCAR-8 ovarian. The TGI with RXF 393 renal, in the assay with OVCAR-4 ovarian, with IGROV1 ovarian, in the assay on 786-0 renal, in the assay on HCT-15 colon and in the assay on TK-10 renal was over 100 µM in each case. The TGI in the assay with SK-MEL-28 melanoma and with OVCAR-8 ovarian was over 100 µM each time.
Take `COC(=O)/C([Se]c1c(C)cc(C)cc1C)=C(\[Se]c1c(C)cc(C)cc1C)C(=O)OC`: the TGI in the assay with RXF 393 renal, in the assay on A498 renal, in the assay with OVCAR-4 ovarian, in the assay on IGROV1 ovarian, in the assay with 786-0 renal and with HCT-15 colon was over 100 µM each time. Besides, the TGI with TK-10 renal and in the assay on OVCAR-8 ovarian was over 100 µM throughout.

The values are drawn from PubChem BioAssay (NCI).
